Several values for one entry are separate records, joined by “and”; a condition that tells them apart may be missing. Identical values can stand only once.
Key:
G9a = biological target: T1, G9a (Homo sapiens, UniProt Q96KQ7); experiment: Epigenetic panel (BPS Bioscience); G9a TR-FRET IC50; assay type: biochemical
T1 sequence (Q96KQ7 1-1210): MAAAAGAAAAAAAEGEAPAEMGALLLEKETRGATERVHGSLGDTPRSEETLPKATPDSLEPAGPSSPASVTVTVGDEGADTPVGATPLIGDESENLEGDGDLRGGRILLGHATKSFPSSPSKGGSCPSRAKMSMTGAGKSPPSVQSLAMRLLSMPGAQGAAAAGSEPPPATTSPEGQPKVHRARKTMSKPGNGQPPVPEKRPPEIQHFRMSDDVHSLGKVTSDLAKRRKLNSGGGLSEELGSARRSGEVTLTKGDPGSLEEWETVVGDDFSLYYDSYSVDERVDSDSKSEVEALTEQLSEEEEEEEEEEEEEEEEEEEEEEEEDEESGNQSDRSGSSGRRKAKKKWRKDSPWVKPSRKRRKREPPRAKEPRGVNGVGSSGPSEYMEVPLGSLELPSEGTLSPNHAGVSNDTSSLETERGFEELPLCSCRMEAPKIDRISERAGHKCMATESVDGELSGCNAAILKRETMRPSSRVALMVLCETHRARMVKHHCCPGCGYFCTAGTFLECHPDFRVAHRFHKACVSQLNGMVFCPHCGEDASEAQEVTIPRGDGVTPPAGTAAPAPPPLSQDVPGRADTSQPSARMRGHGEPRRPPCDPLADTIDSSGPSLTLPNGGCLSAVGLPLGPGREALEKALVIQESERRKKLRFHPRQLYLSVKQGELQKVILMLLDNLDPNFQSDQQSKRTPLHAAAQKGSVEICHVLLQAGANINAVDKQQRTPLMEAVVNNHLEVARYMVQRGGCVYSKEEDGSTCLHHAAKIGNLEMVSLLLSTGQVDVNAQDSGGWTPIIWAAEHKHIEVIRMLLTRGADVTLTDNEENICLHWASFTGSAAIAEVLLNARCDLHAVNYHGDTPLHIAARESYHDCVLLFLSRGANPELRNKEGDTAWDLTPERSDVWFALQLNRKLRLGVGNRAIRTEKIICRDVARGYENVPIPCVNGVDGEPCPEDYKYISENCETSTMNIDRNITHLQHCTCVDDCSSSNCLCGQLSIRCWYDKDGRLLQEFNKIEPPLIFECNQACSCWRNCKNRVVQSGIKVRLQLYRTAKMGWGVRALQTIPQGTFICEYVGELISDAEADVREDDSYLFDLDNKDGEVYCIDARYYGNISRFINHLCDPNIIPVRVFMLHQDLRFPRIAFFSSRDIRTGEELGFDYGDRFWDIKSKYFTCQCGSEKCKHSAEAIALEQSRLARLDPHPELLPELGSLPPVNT
Description: DNMT1 and G9a IC50 values were measured using time-resolved fluorescence energy transfer assays, as described previously[18],[25],[26].
Binding experiments were performed in duplicate at a concentration of 10 μM.

Kinetic solubility = assay type: physicochemical; details: PBS buffer, aqueous buffer, kinetic from dmso stock, pH 7.4, PBS
Description: This study was conducted at Wuxi (http://www.wuxi.com/). Stock solutions of test compounds (10 mM; 100% DMSO) and 490 μL of PBS buffer at pH = 7.4 were added in the lower chamber of Whatman’s Mini-Uniprep vials. After vortex mixing for ≥2 min, the vials were shaken at 800 rpm for 24 h and finally centrifuged at 1520 g for 20 min. The concentration of the filtrate was quantified by HPLC (calibration curve from 1.5624 μM to 200 μM). Amiodarone hydrochloride, carbamazepine and chloramphenicol were used as controls.

[1] = system: ML-2 xenograft in BALB/cA Rag2-/-γc-/- mice; experiment: Subcutaneous xenograft model (tumor volume, CD11b q-PCR, H3Ac, body weight); assay type: in vivo, mouse; details: for Tumor volume: ML-2 subcutaneous xenograft, individual mice (Fig 3B), in mm³; for body weight of mice: subcutaneous ML-2 AML mouse model, individual mice
Description: (§1) The subcutaneous xenograft models of ML-2 and MV4-11 derived cells, 5 × 10^6 and 10 × 10^6 cells, respectively, diluted in 100 µL of saline solution were subcutaneously inoculated in the back left flank of female BALB/cA Rag2^−/−γc^−/− mice. When tumors became palpable, the mice were randomized into three groups: vehicle, CM-444 and CM-1758, (eight animals/group). Treatment with 10 mg/kg of CM-444 or CM-1758 i.p. was started 4 days after injection when all mice presented subcutaneous tumors and was administered for 5 consecutive days followed by 2 resting days over 3 weeks for the ML-2 model or daily for 2 weeks for the MV4-11 model. The control group received only 80% saline solution, 10% DMSO […] 10% Tween 20 (diluents of CM-444 and CM-1758). Tumor size was analyzed every 2–3 days using the following method: […], where D and d corresponded to the longest and shortest diameter, respectively. The maximal tumor size/burden permitted by the Animal Care and Ethics Committee of the University of Navarra is 2000 mm^3. This maximal tumor size/burden was not exceeded in any case. ML-2 and MV4-11 tumors were explanted for differentiation and global histone acetylation analysis. Histones were extracted, and a western blot of H3Ac was performed as described above. For the differentiation study, RNA was extracted, and q-PCR of CD11b was performed as described above (CD11b sequence primer can be found in Supplementary Table 10).

[2] = system: MV4-11 xenograft in BALB/cA Rag2-/-γc-/- mice; experiment: as above; assay type: in vivo, mouse; details: for Tumor volume: MV4-11 subcutaneous xenograft, in mm³; for Tumor volume / body weight of mice: individual mice; for body weight of mice: subcutaneous MV4-11 AML mouse model
Description: as §1

[3] = system: MOLM-13 i.v. in BALB/cA Rag2-/-γc-/- mice; experiment: Intravenous xenograft model (survival, CD11b in blood, body weight); assay type: in vivo, mouse

## COc1cc2nc(-c3cc(C)oc3C)cc(NCC3CCN(c4ncc(C(=O)NO)cn4)CC3)c2cc1OC [CM-1758, 2-[4-[[[2-(2,5-dimethyl-3-furyl)-6,7-dimethoxy-4-quinolyl]amino]methyl] -1-piperidyl]pyrimidine-5-carbohydroxamic acid]
G9a
  IC50: > 10 µM
G9a; 10 µM
  inhibition at 10 µM: 9%
Kinetic solubility
  solubility at 24 h: > 144 µg/mL
[1]; ML-2 s.c., 10 mg/kg i.p.
  CD11b expression in explanted tumors: significant increase in CD11b expression
  H3Ac levels in tumors: increase in H3Ac levels
[1]; ML-2 s.c., 10 mg/kg i.p., 5 days on/2 off, 3 weeks
  tumor growth: inhibited tumor growth significantly
[1]; day 0
  Tumor volume: 0
[1]; day 8
  Tumor volume: 47.3386 and 22.9378 and 56.1402 and 38.666 and 38.4941 and 0 and 12.669 and 19.4742
  body weight of mice: 22.9 (2×) and 20.3 and 23.8 and 22.4 and 21.2 and 22 and 23.5
[1]; day 11
  Tumor volume: 71.6377 and 35.2331 and 55.0976 and 24.3685 and 43.9734 and 8.639 and 15.4625 and 6.7915
[1]; day 13
  Tumor volume: 158.593 and 184.271 and 192.133 and 111.517 and 131.043 and 16.1706 and 35.0775 and 32.6327
  body weight of mice: 23 (2×) and 21.6 and 24.6 and 24 and 23.4 and 22 and 25.4
[1]; day 15
  Tumor volume: 338.357 and 436.616 and 344.697 and 149.062 and 276.144 and 73.6819 and 103.063 and 52.9756
  body weight of mice: 22.8 and 22 and 24.5 and 23.6 (2×) and 20.9 and 22.4 and 24.7
[1]; day 18
  Tumor volume: 450.141 and 971.066 and 667.169 and 309.135 and 557.655 and 200.834 and 266.198 and 84.0917
[1]; day 20
  Tumor volume: 750.162 and 778.307 and 425.752 and 619.516 and 424.823 and 364.169 and 387.08 and 367.037
  body weight of mice: 22.1 and 20.8 (2×) and 23.3 (2×) and 19.4 and 19.9 and 23.7
[1]; after in vivo treatment, subcutaneous ML-2 mouse model, western blot, individual tumors
  Relative H3Ac/H3 total levels: 1.2836 and 1.288 and 1.719 and 8.364 and 1.323 and 1.1332
[1]; day 4, in g (unit assumed)
  body weight of mice: 23.8 and 22.2 and 25.1 and 23.3 and 24.6 and 21 and 23.7 and 24.3
[1]; day 6, in g (unit assumed)
  body weight of mice: 23 and 20.6 and 24.5 and 22.4 and 23.6 and 21.2 and 22.8 and 24.2
[1]; day 11, in g (unit assumed)
  body weight of mice: 23 and 22.4 and 24.2 and 23.7 and 23.9 and 21.1 and 23.2 and 25.2
[1]; day 18, in g (unit assumed)
  body weight of mice: 22.9 and 21.9 and 23.9 and 24 and 22.8 and 20.8 and 21.6 and 24.1
[1]; tumors of the subcutaneous ML-2 model, individual tumors (Fig 3C)
  CD11b expression from tumors measured by q-PCR: 1.158 log10 (2-ΔΔCt) and 2.588 log10 (2-ΔΔCt) and 4.58 log10 (2-ΔΔCt) and 3.25 log10 (2-ΔΔCt) and 2.2558 log10 (2-ΔΔCt)
[2]; MV4-11 s.c., 10 mg/kg i.p.
  CD11b expression in explanted tumors: significant increase in CD11b expression
  H3Ac levels in tumors: increase in H3Ac levels
[2]; MV4-11 s.c., 10 mg/kg i.p. daily, 2 weeks
  tumor growth: inhibited tumor growth significantly
[2]; day 0
  Tumor volume: 0
[2]; day 7
  Tumor volume: 3.017
  body weight of mice: 20.5 and 16.4 and 21.3 and 21.6 and 20.8 and 23.9 and 19.5 (2×) and 19.3 and 19.8
[2]; day 9
  Tumor volume: 146.917 and 71.6651 and 143.551 and 106.303 and 28.6195 and 85.1833 and 49.7152 and 104.914 and 63.9744 and 234.732
[2]; day 12
  Tumor volume: 419.824 and 122.408 and 229.873 and 238.093 and 102.721 and 299.024 and 103.513 and 178.679 and 140.065 and 433.026
[2]; day 14
  Tumor volume: 415.95 and 158.115 and 375.793 and 401.985 and 154.443 and 348.449 and 102.044 and 262.858 and 231.325 and 547.206
  body weight of mice: 21.4 and 17.3 and 21.1 and 21.6 (2×) and 21.8 and 23.6 and 20 and 20.5 and 21
[2]; after in vivo treatment, subcutaneous MV4-11 mouse model, western blot, individual tumors
  Relative H3Ac/H3 total levels: 1.267 and 1.234 and 1.332 and 1.244 and 1.416 and 1.49
[2]; day 1, in g (unit assumed)
  body weight of mice: 23.6 and 18.5 and 22.2 and 22.3 and 23.2 and 21.8 and 24.2 and 20.2 and 19.5 and 21.3
[2]; day 5
  body weight of mice: 21.3 and 16.3 and 21.5 (2×) and 21.2 and 22.1 and 23 and 20 (2×) and 20.2
[2]; day 9, in g (unit assumed)
  body weight of mice: 21 and 17.1 and 21.6 and 21.1 and 21.7 and 20.2 and 23.4 and 19.3 and 19.8 and 20.4
[2]; day 12, in g (unit assumed)
  body weight of mice: 21.3 and 18 and 22.5 and 21.9 and 22.2 and 21.8 and 23.6 and 19.9 and 20.4 and 21.5
[2]; day 16
  body weight of mice: 22.2 (2×) and 18.1 and 21.8 and 21.5 and 22.3 and 24.4 and 20.3 and 20.9 and 21.7
[2]; tumors of the subcutaneous MV4-11 model, q-PCR, individual tumors
  CD11b expression, log10 (2-ΔΔCt): 0.854 and 1.2584 and 2.36 and 1.145 and 1.034
[3]; MOLM-13 i.v., 10 mg/kg i.p.
  CD11b in blood samples: significant induction of CD11b
[3]; blood samples of mice engrafted intravenously with MOLM-13 cells, individual mice
  CD11b (%): 43.5% and 62.1% and 13.7% and 9.45% and 29.6% and 36.3% and 8.98% and 17.9% and 35.4% and 52.9% and 49.9%
